Laboratory results as given in ChEMBL document CHEMBL5715949, “Discovery of a selective irreversible BMX inhibitor for prostate cancer” (ACS Chem Biol, 2013).
The source made the active and inactive calls. The calls are words filed in the database; no cut-off is given here.

Tests used:
[1] = biological target: Insulin receptor-related protein (Homo sapiens) (UniProt P14616); test: Inhibition of INSRR (unknown origin) assessed as remaining activity at 1 uM by Kinome scan method relative to control
[2] = Inhibition of PI3K/AKT/mTOR signalling pathway in human RV-1 cells assessed as decrease in S6K phosphorylation at T389 residue at 2.5 uM incubated for 5 days in presence of MK2206 by immunoblot analysis; format: cell-based; details: time 5.0 day
[3] = tested on: RV-1; test: Induction of apoptosis in human RV-1 cells assessed as increase in cleaved caspase-3 protein expression at 5 uM incubated for 3 days by immunostaining analysis; format: functional, cell-based; details: time 3.0 day
[4] = biological target: Megakaryocyte-associated tyrosine-protein kinase (Homo sapiens) (UniProt P42679); test: Inhibition of CTK (unknown origin) assessed as remaining activity at 1 uM by Kinome scan method relative to control
Chain of Megakaryocyte-associated tyrosine-protein kinase (Homo sapiens) (P42679 whole entry): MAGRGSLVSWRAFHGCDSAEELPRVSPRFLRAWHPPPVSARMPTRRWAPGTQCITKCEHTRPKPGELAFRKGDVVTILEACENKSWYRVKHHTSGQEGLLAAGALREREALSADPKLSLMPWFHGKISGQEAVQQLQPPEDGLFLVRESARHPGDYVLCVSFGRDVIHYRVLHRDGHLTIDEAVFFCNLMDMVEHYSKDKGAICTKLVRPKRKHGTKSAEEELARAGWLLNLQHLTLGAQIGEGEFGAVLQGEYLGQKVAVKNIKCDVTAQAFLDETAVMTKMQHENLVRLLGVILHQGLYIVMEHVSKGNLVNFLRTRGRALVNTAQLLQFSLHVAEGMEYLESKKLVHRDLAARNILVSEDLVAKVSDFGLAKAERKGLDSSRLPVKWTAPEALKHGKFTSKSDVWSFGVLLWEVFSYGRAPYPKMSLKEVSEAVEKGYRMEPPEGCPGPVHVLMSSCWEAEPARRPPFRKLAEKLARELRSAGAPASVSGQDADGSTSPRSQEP

[5] = biological target: Mitogen-activated protein kinase kinase kinase 15 (Homo sapiens) (UniProt Q6ZN16); test: Inhibition of MAP3K15 (unknown origin) assessed as remaining activity at 1 uM by Kinome scan method relative to control
[6] = Inhibition of PI3K/AKT/mTOR signalling pathway in human RV-1 cells assessed as decrease in 4EBP phosphorylation at T37/46 residue at 2.5 uM incubated for 5 days in presence of MK2206 by immunoblot analysis; format: cell-based; details: time 5.0 day
[7] = biological target: Ephrin type-A receptor 6 (Homo sapiens) (UniProt Q9UF33); test: Inhibition of EPHA6 (unknown origin) assessed as remaining activity at 1 uM by Kinome scan method relative to control
Chain of Ephrin type-A receptor 6 (Homo sapiens) (Q9UF33 whole entry, canonical isoform): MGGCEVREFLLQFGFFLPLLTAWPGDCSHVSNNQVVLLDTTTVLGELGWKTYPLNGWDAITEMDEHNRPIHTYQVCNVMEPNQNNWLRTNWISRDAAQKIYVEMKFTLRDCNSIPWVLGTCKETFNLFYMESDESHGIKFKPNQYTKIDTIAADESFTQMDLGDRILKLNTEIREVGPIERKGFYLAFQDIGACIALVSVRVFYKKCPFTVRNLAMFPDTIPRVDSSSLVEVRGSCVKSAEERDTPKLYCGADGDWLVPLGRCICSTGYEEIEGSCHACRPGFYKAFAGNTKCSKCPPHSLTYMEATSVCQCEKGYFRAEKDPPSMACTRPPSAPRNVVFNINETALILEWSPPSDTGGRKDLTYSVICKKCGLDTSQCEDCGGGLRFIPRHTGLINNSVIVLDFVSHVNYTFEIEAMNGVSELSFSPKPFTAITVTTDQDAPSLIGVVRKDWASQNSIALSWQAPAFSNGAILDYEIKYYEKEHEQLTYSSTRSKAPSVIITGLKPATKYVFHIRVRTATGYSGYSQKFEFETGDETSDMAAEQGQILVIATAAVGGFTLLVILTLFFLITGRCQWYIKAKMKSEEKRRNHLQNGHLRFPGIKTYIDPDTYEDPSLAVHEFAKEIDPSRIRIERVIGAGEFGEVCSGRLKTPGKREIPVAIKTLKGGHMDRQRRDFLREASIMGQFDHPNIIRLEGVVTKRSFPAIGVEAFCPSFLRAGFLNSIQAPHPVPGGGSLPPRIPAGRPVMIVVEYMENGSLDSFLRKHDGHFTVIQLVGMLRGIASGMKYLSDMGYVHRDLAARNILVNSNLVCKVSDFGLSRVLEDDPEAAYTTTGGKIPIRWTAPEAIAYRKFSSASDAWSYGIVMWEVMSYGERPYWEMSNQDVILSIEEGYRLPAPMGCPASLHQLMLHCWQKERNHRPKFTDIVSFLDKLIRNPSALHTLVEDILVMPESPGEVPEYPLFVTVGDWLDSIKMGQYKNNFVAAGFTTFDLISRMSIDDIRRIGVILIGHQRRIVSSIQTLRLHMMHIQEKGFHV

[8] = biological target: Phosphatidylinositol 4,5-bisphosphate 3-kinase catalytic subunit alpha isoform (Homo sapiens) (UniProt P42336); test: Inhibition of PIK3CA (unknown origin) assessed as remaining activity at 1 uM by Kinome scan method relative to control
Chain of Phosphatidylinositol 4,5-bisphosphate 3-kinase catalytic subunit alpha isoform (Homo sapiens) (P42336 whole entry, canonical isoform): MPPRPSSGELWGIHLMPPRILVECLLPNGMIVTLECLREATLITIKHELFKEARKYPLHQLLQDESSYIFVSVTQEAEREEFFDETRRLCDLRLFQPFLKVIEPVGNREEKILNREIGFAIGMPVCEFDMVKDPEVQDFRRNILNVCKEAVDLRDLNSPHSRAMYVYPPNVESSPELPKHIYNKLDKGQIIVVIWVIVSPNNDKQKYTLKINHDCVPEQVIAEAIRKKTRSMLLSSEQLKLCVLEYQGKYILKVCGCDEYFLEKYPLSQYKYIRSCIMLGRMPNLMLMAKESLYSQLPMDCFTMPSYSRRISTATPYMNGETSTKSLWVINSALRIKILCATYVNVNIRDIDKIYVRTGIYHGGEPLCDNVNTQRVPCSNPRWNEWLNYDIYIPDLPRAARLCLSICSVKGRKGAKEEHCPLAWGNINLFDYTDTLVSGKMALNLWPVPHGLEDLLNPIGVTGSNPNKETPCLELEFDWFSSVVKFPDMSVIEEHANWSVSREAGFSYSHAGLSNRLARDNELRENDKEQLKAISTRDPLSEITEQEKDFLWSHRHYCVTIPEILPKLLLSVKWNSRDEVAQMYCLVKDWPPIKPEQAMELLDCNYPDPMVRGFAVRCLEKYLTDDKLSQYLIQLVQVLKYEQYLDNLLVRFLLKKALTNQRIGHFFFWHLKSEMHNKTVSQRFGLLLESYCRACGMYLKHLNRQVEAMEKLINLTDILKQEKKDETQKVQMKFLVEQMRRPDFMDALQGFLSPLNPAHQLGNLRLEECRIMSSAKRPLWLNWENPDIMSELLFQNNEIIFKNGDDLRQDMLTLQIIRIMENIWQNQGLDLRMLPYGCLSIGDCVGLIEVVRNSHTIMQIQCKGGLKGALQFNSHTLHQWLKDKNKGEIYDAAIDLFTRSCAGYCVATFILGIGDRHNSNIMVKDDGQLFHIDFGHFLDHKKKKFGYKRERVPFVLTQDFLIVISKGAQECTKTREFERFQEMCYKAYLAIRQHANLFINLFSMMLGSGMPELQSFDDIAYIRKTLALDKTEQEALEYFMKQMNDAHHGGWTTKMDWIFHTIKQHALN

[9] = biological target: Serine/threonine-protein kinase PAK 2 (Homo sapiens) (UniProt Q13177); test: Inhibition of PAK2 (unknown origin) assessed as remaining activity at 1 uM by Kinome scan method relative to control
[10] = Inhibition of PI3K/AKT/mTOR signalling pathway in human RV-1 cells assessed as decrease in S6K phosphorylation at T389 residue at 2.5 uM incubated for 4 hrs by immunoblot analysis; format: cell-based
[11] = tested on: RV-1; test: Antiproliferative activity against human RV-1 cells assessed as reduction in cell viability at 500 to 2500 nM incubated for 5 days in presence of lapatinib by CellTiter-Glo assay; format: functional, cell-based; details: dose 500-2500 nM, time 5.0 day
[12] = tested on: RV-1; test: Antiproliferative activity against human RV-1 cells assessed as reduction in cell viability at 500 to 2500 nM incubated for 5 days in presence of GDC0941 by CellTiter-Glo assay; format: functional, cell-based; details: dose 500-2500 nM, time 5.0 day
[13] = tested on: VCaP; test: Antiproliferative activity against human VCaP cells assessed growth inhibition incubated for 2 to 5 days by CellTiter-Glo assay; format: functional; details: time 2-5 day
[14] = tested on: BaF3; test: Antiproliferative activity against mouse BaF3 cells expressing TEL-fused BMX assessed growth inhibition incubated for 2 to 5 days by CellTiter-Glo assay; format: functional, cell-based
[15] = biological target: Rho-associated protein kinase 2 (Homo sapiens) (UniProt O75116); test: Inhibition of ROCK2 (unknown origin) assessed as remaining activity at 1 uM by Kinome scan method relative to control
Chain of Rho-associated protein kinase 2 (Homo sapiens) (O75116 whole entry, looked up, the tested form may be a part): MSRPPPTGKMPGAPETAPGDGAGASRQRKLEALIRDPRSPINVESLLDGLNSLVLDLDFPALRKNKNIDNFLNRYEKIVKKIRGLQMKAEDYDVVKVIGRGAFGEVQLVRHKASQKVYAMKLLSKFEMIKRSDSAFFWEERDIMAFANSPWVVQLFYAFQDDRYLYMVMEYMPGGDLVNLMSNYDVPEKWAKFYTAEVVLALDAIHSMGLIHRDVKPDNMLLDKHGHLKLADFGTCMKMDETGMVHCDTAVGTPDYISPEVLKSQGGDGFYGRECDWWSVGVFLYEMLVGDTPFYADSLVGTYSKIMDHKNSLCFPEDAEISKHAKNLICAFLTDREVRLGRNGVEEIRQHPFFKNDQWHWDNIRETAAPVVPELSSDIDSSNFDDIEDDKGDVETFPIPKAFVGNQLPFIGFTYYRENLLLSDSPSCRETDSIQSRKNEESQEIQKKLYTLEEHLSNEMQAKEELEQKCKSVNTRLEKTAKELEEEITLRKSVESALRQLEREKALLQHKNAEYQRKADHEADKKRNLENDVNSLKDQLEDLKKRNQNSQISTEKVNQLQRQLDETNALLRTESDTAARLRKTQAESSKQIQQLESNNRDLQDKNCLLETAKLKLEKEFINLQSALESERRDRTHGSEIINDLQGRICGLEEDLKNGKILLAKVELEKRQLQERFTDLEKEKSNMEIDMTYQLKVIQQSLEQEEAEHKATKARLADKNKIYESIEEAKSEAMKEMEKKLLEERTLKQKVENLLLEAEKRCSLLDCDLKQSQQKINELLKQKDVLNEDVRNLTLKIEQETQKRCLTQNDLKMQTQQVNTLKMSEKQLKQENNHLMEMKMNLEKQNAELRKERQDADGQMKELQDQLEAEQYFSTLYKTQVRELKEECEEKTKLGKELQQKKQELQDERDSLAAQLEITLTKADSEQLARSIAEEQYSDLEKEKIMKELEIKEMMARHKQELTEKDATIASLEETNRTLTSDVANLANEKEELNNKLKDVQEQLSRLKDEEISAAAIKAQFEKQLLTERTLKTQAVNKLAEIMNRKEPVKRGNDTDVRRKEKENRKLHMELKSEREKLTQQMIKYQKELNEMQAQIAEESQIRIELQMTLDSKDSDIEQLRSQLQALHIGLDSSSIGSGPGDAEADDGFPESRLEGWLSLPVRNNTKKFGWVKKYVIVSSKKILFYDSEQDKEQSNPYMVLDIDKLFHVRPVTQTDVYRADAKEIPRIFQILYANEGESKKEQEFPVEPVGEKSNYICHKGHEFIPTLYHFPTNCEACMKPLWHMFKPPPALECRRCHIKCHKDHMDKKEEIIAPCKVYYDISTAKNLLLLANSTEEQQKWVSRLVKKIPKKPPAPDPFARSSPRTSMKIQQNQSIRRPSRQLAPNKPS

[16] = biological target: LIM domain kinase 2 (Homo sapiens) (UniProt P53671); test: Inhibition of LIMK2 (unknown origin) assessed as remaining activity at 1 uM by Kinome scan method relative to control
Chain of LIM domain kinase 2 (Homo sapiens) (P53671 whole entry, looked up, the tested form may be a part): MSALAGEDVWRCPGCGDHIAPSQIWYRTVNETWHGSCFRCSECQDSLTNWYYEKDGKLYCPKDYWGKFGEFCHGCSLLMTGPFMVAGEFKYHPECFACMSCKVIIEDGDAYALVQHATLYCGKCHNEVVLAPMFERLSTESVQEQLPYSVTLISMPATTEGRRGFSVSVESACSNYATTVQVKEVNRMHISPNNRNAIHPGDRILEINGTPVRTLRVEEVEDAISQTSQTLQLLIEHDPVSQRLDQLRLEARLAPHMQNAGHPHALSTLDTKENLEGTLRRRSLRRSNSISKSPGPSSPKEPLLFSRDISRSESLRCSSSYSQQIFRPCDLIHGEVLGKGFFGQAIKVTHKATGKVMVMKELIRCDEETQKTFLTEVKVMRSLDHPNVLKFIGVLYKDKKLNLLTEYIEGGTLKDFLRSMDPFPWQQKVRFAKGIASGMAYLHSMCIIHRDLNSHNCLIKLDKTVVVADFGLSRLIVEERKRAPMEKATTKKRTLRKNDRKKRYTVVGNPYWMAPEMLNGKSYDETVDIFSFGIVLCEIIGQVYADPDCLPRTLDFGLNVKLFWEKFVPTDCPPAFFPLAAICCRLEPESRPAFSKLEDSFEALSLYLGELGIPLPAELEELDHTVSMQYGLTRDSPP

[17] = biological target: Tyrosine-protein kinase CSK (Homo sapiens) (UniProt P41240); test: Inhibition of CSK (unknown origin) assessed as remaining activity at 1 uM by Kinome scan method relative to control
[18] = biological target: Tyrosine-protein kinase JAK2 (Homo sapiens) (UniProt O60674); test: Inhibition of JAK2 JH1 domain (unknown origin) assessed as remaining activity at 1 uM by Kinome scan method relative to control
[19] = biological target: Serine/threonine-protein kinase mTOR (Homo sapiens) (UniProt P42345); test: Inhibition of MTOR (unknown origin) assessed as remaining activity at 1 uM by Kinome scan method relative to control
[20] = biological target: Tyrosine-protein kinase Yes (Homo sapiens) (UniProt P07947); test: Inhibition of YES (unknown origin) assessed as remaining activity at 1 uM by Kinome scan method relative to control
[21] = Inhibition of PI3K/AKT/mTOR signalling pathway in human RV-1 cells assessed as decrease in GSKalpha/beta phosphorylation at 2.5 uM incubated for 4 hrs by immunoblot analysis; format: cell-based
[22] = biological target: Serine/threonine-protein kinase ULK1 (Homo sapiens) (UniProt O75385); test: Inhibition of ULK1 (unknown origin) assessed as remaining activity at 1 uM by Kinome scan method relative to control
[23] = biological target: STE20/SPS1-related proline-alanine-rich protein kinase (Homo sapiens) (UniProt Q9UEW8); test: Inhibition of STK39 (unknown origin) assessed as remaining activity at 1 uM by Kinome scan method relative to control
[24] = biological target: Bone morphogenetic protein receptor type-2 (Homo sapiens) (UniProt Q13873); test: Inhibition of BMPR2 (unknown origin) assessed as remaining activity at 1 uM by Kinome scan method relative to control
[25] = biological target: Protein kinase C iota type (Homo sapiens) (UniProt P41743); test: Inhibition of PRKCI (unknown origin) assessed as remaining activity at 1 uM by Kinome scan method relative to control
[26] = biological target: Myotonin-protein kinase (Homo sapiens) (UniProt Q09013); test: Inhibition of DMPK (unknown origin) assessed as remaining activity at 1 uM by Kinome scan method relative to control
[27] = biological target: Serine/threonine-protein kinase PAK 3 (Homo sapiens) (UniProt O75914); test: Inhibition of PAK3 (unknown origin) assessed as remaining activity at 1 uM by Kinome scan method relative to control
[28] = tested on: BaF3; test: Antiproliferative activity against mouse BaF3 cells expressing TEL-fused TYK2 […] mutant assessed growth inhibition incubated for 2 to 5 days by CellTiter-Glo assay; format: functional; details: time 2-5 day
[29] = biological target: Serine/threonine-protein kinase STK11 (Homo sapiens) (UniProt Q15831); test: Inhibition of LKB1 (unknown origin) assessed as remaining activity at 1 uM by Kinome scan method relative to control
[30] = biological target: Rhodopsin kinase GRK7 (Homo sapiens) (UniProt Q8WTQ7); test: Inhibition of GRK7 (unknown origin) assessed as remaining activity at 1 uM by Kinome scan method relative to control
[31] = biological target: Phosphatidylinositol 5-phosphate 4-kinase type-2 beta (Homo sapiens) (UniProt P78356); test: Inhibition of PIP5K2B (unknown origin) assessed as remaining activity at 1 uM by Kinome scan method relative to control
Chain of Phosphatidylinositol 5-phosphate 4-kinase type-2 beta (Homo sapiens) (P78356 whole entry): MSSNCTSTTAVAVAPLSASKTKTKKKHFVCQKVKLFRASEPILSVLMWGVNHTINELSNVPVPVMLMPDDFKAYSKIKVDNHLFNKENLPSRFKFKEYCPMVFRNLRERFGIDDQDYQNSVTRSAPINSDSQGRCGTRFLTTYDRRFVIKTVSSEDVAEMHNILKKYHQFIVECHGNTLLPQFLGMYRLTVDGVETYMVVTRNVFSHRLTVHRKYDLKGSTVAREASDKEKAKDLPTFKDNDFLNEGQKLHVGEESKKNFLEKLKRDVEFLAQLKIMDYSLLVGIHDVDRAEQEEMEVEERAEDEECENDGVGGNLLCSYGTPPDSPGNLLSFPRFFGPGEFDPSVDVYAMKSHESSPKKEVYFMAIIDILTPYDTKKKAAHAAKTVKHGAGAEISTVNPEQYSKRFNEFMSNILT

[32] = tested on: Tyrosine-protein kinase ABL1 (Homo sapiens), P00519 [T315I]; test: Inhibition of ABL1 T315I mutant (unknown origin) assessed as remaining activity at 1 uM by Kinome scan method relative to control

Q: With `C=CC(=O)Nc1cc(-n2c(=O)ccc3cnc4ccc(-c5ccc(NS(C)(=O)=O)cc5)cc4c32)ccc1C` as the compound, how does the Activity [1] read?
A: 98%

Q: What about the inhibition [2] of the same compound?
A: Active

Q: And the Activity [3]?
A: Active

Q: What about the Activity [4] of the same compound?
A: 92%

Q: And the Activity [5]?
A: 70%

Q: What about the inhibition [6] of the same compound?
A: Active

Q: What about the Activity [7] of the same compound?
A: 96%

Q: What about the Activity [8] of the same compound?
A: 68%

Q: What about the Activity [9] of the same compound?
A: 78%

Q: And the inhibition [10]?
A: inactive

Q: What about the Activity [11] of the same compound?
A: Active

Q: What about the Activity [12] of the same compound?
A: Active

Q: And the GI50 [13]?
A: 2460 nM

Q: What about the IC50 [14] of the same compound?
A: 569 nM

Q: What about the GI50 ([14]; time 2-5 day) of the same compound?
A: 25 nM

Q: And the Activity [15]?
A: 87%

Q: And the Activity [16]?
A: 92%

Q: What about the Activity [17] of the same compound?
A: 99%

Q: And the Activity [18]?
A: 86%

Q: And the Activity [19]?
A: 45%

Q: What about the Activity [20] of the same compound?
A: 74%

Q: What about the inhibition [21] of the same compound?
A: inactive

Q: What about the Activity [22] of the same compound?
A: 84%

Q: What about the Activity [23] of the same compound?
A: 68%

Q: And the Activity [24]?
A: 69%

Q: What about the Activity [25] of the same compound?
A: 84%

Q: What about the Activity [26] of the same compound?
A: 91%

Q: What about the Activity [27] of the same compound?
A: 92%

Q: What about the GI50 [28] of the same compound?
A: 6.09 µM

Q: What about the Activity [29] of the same compound?
A: 79%

Q: What about the Activity [30] of the same compound?
A: 75%

Q: And the Activity [31]?
A: 93%

Q: What about the Activity [32] of the same compound?
A: 87%
